Measured values from patent EP2605769B1, “BENZOQUINONE DERIVATIVES FOR THE TREATMENT OF MITCHONDRIAL EYE DISEASES” (Santhera Pharmaceuticals (Schweiz) AG, priority 2010, dated 2012).

Assays:
[1] = system: Immortalized lymphoblastoid cells (BC1 LCL); experiment: ATP assay (ATP dependent luciferase reaction, low glucose); type: cell-based; conditions: 10 µM, 72 h
Description: Electrons donated from the citric acid cycle in form of NADH are transferred between complexes I, II and III of the respiratory chain. In this process mitochondrial membrane potential is generated through proton pumps in the mitochondrial inner membrane. This electrochemical gradient across the inner mitochondrial membrane is used in healthy cells to provide the energy to drive mitochondrial ATP production. Consequently, cellular ATP levels are a good indicator of mitochondrial function. […] A potential inhibition of mitochondrial respiration can be detected through special growth conditions in vitro. […]
Experimental Procedure: This assay was therefore performed in the absence of glucose in the medium. […] The number of cells was counted and after brief washing in PBS and collecting through centrifugation (5 min; 200 x g) the cells were lysed in a volume of 0.5 ml lysis solution (4 mM EDTA, 0.2% Triton X-100) for 15 min.on ice and 10 µl of lysate was added into a white 96 well plate. […] The reaction was started by addition of 100 µl reaction mix (300 µM D-Luciferin, 5 µg/ml firefly luciferase, 75 µM DTT, 25 mM HEPES, 6.25 mM MgCl2, 625 µM EDTA and 1 mg/ml BSA) and the luminescence signal was quantified in a multimode plate reader (Tecan M1000 plate reader; luminescence integration time: 100 ms). […]

[2] = system: HepG2 hepatoblastoma cell line; experiment: Cytotoxicity assay (WST-1); type: cell-based, human; conditions: Hep-G2 cells, 24 hours exposure
Description: This assay investigates cytotoxicity which is defined as the cell-killing property of a chemical compound, independent from the mechanisms of cell death. The HepG2 hepatoblastoma cell line is one of the most common human cell lines for hepatotoxicity studies. […] This assay measures metabolic activity of living cells using the WST-1 cell proliferation reagent (Roche Diagnostics). The tetrazolium salt WST-1 is cleaved to water soluble formazan by cellular enzymes. An expansion in the number of viable cells results in an increase in the overall activity of mitochondrial dehydrogenases in the sample. This augmentation in enzyme activity leads to an increase in the amount of formazan dye formed, which directly correlates to the number of metabolically active cells in the culture. The formazan dye produced by metabolically active cells is directly quantified in a scanning multiwell spectrophotometer by measuring the absorbance of the formazan dye solution between 420 and 480 nm. Healthy HepG2 cells, when maintained in culture, continuously divide and multiply over time. A toxic chemical, regardless of site and mechanism of action, will interfere with this process and result in the reduction of the growth rate reflected in the cell number.
Experimental Procedure: Hep-G2 cells are seeded into a 96-well microplate and maintained in culture for 24 hours. They are then exposed to the test compound over a range of eight concentrations. After 24 hours exposure, the cells are incubated in presence of reagent WST-1 for 30 min before measuring the absorbance of the formazan dye formed. Cytotoxicity is expressed as a concentration dependent reduction of the conversion formazan dye formation due to a decrease in cell proliferation as compared to untreated cells. The TC50 (Toxic Concentration 50%), is defined as the concentration of tested compound required to reduce the cellular viability by 50% relative to the control culture. The lower the TC50 value, the higher is the cytotoxic potential of the test compound. […]

SMILES | ATP levels [1] [%] | TC50 [2] [µM]
COC1=C(OC)C(=O)C(CCCCCCCCCC(C)(C)O)=C(C)C1=O [Compound IC] | 63 | 
COC1=C(OC)C(=O)C(CCCCCCCCCCO)=C(C)C1=O [Compound IA, Idebenone] |  | 100
CCCCCCCCCCCC1=C(O)C(=O)C=C(O)C1=O [Compound IE, Embelin] | 95 | 100
